{"source": "patent US20090042991A1", "about": "“Methods of increasing natural killer cell activity for therapy” (priority 2005, published 2009)", "key": {"[1]": {"test_system": "advanced metastatic melanoma", "test": "2 stage Phase 2 study: tumor response with paclitaxel", "type": "in vivo, human", "conditions": "for Best Response cycle 2 week 4: one value per subject", "protocol": "The higher tolerated dose level was expanded to a total of 20 patients (Stage 1). The study will continue to Stage 2 if 7 or more patients have a response of stable disease or better, or at least 2 patients have a partial response or better. A safety assessment was performed with the first 6 patients enrolled as the weekly dose schedule had not previously been studied in humans. The primary endpoint is non-progression rate (NPR) at 3 months and response rate. Pharmacodynamic parameters include pre and post-dose NK cell activity in blood and when possible, tumor biopsies. […] Best Response indicates an evaluation of the patient's tumor: SD indicates less than 20% of an increase and less than 30% of a decrease in the sum of the longest diameters as compared to baseline; and PD=at least a 20% increase in the sum of the longest diameters as compared to baseline. NK Activity indicates the change in NK activity before and after dosing."}, "[2]": {"test_system": "NK cell activity", "test": "NK cell cytotoxic activity of patient PBMC (K562/eGFP flow cytometry), melanoma study", "type": "in vivo, human", "conditions": "for % tumor cell lysis pre-dose: baseline before dosing", "description": "(§1) The following procedure can be employed to assay NK cell activity in a subject. The procedure is adapted from Kantakamalakul W, Jaroenpool J, Pattanapanyasat K. A novel enhanced green fluorescent protein (EGFP)-K562 flow cytometric method for measuring natural killer (NK) cell cytotoxic activity. J Immunol Methods. 2003 Jan. 15; 272:189-197, the entire teachings of which are incorporated herein by reference.\n(§2) Materials and methods: Human erythroleukaemic cell line, K562, was obtained from American Type Culture Collection (CCL-243, American Type Culture Collection, Manassas, Va.), and cultured in RPMI-1640 medium (Cat#1875-093Gibco Invitrogen Corp, Carlsbad, Calif.) supplemented with 10% heat inactivated fetal calf serum (Gibco), 2 mM L-glutamin, 100 μg/ml streptomycin and 100 IU/ml penicillin at 37° C. with 5% CO2. K562 cells were transduced with retroviral vector which encode green fluorescent protein (eGFP). Stable cell line was selected with antibiotic, G418.\n(§3) The subject's peripheral blood mononuclear cells (PBMCs) were prepared by clinical study sites and received in BD Vacutainer Cell Preparation Tube with sodium heparin (Product Number: 362753, Becton Dickinson, Franklin Lakes, N.J.).\n(§4) Effector cells alone and target cells alone were used as controls. All tubes were incubated at 37° C. with 5% CO2 for about 3.5 hr. Ten microliters of propidium iodide (PI) at a concentration of 1 mg/mL was added t each tube including effector and target control tubes and then incubated at room temperature for 15 min.\n(§5) Cytotoxic activity was analyzed with a FACSCalibur flow cytometer (Becton Dickinson). Linear amplification of the forward and side scatter (FSC/SSC) signals, as well as logarithmic amplification of eGFP and PI emission in green and red fluorescence were obtained. Ten thousand events per sample tube with no gating for acquisition were collected for analysis. Data analysis for two-parameter dot plots for eGFP versus PI was performed using CELLQuest (Becton Dickinson Biosciences) software to enumerate live and dead target cells. Debris and dead cells were excluded by setting a threshold of forward light scatter.\nThe study will continue to Stage 2 if 7 or more patients have a response of stable disease or better, or at least 2 patients have a partial response or better. A safety assessment was performed with the first 6 patients enrolled as the weekly dose schedule had not previously been studied in humans. The primary endpoint is non-progression rate (NPR) at 3 months and response rate. Pharmacodynamic parameters include pre and post-dose NK cell activity in blood and when possible, tumor biopsies.\nBest Response indicates an evaluation of the patient's tumor: SD indicates less than 20% of an increase and less than 30% of a decrease in the sum of the longest diameters as compared to baseline; and PD=at least a 20% increase in the sum of the longest diameters as compared to baseline. NK Activity indicates the change in NK activity before and after dosing."}, "[3]": {"test_system": "NK cell activity", "test": "NK cell cytotoxic activity of patient PBMC (K562/eGFP flow cytometry), lung carcinoma study", "type": "in vivo, human", "conditions": "for % tumor cell lysis post-dose / NK activity (change before and after dosing) / % tumor cell lysis pre-dose: Effector/Target 80:1; for % tumor cell lysis pre-dose: baseline before dosing", "description": "as §1, §2, §3, §4, §5\nDosing was IV q 3 weeks for up to 6 cycles in the absence of dose-limiting toxicity or progression. […] The phase 2 primary endpoint is time to progression, with secondary endpoints of response rate, survival, and quality of life. Study pharmacodynamic parameters include NK cell activity and Hsp70 level.\nBest Response indicates an evaluation of the patient's tumor: PR=at least a 30% decrease in the sum of the longest diameters as compared to baseline, while SD indicates less than 20% of an increase and less than 30% of a decrease in the sum of the longest diameters as compared to baseline. […] NK Activity indicates the change in NK activity before and after dosing."}, "[4]": {"test_system": "Hsp70", "test": "Phase I trial: plasma Hsp70 by sandwich ELISA", "type": "in vivo, human", "protocol": "Plasma Hsp70 was measured by a sandwich ELISA kit (Stressgen Bioreagents Victoria, British Columbia, CANADA) according to a modified protocol in house. In brief, Hsp70 in plasma specimens and serial concentrations of Hsp70 standard were captured onto 96-well plate on which anti-Hsp70 antibody was coated. Then captured Hsp70 was detected with a biotinylated anti-Hsp70 antibody followed by incubation with europium-conjugated streptavidin. After each incubation unbound materials were removed by washing. Finally, antibody-Hsp70 complex was measured by time resolved fluorometry of europium. Concentration of Hsp70 was calculated from a standard curve."}, "[5]": {"conditions": "Paclitaxel 80 + Cmpnd (1) 106 mg/M^2 weekly, Effector/Target 80:1, one value per subject"}, "[6]": {"conditions": "Paclitaxel 80 + Cmpnd (1) 213 mg/M^2 weekly, Effector/Target 80:1, one value per subject"}, "[7]": {"conditions": "Paclitaxel 80 + Cmpnd (1) 213 mg/M^2 weekly, Effector/Target (40:1), subject 15"}, "[8]": {"conditions": "Paclitaxel 175 + Cmpnd (1) 233 mg/M^2 (carboplatin AUC 6), one value per subject"}, "[9]": {"conditions": "Paclitaxel 200 + Cmpnd (1) 266 mg/M^2 (carboplatin AUC 6), one value per subject"}}, "note": "Several values for one entry are separate records, joined by “and”; a condition that tells them apart may be missing. Equal values may be shown once. Entries after “also recorded” stand apart in the source; their conditions may differ."}
{"smiles": "CN(NC(=O)CC(=O)NN(C)C(=S)c1ccccc1)C(=S)c1ccccc1", "note": "[Compound (1)]", "values": [{"measurement": "serious effects specifically attributable to Compound (1)", "setting": "35 patients, 8 dose levels, with paclitaxel IV every 3 weeks", "result": "No serious effects"}, {"measurement": "tolerability of the combination", "setting": "Phase I, with paclitaxel, adverse events consistent with those expected for paclitaxel alone", "result": "well-tolerated"}, {"measurement": "non-progression rate (NPR) at 3 months", "setting": "[1]; 20 evaluable patients, Stage 1", "result": 55, "unit": "%"}, {"measurement": "Best Response cycle 2 week 4", "setting": "[1]; Paclitaxel 80 + Cmpnd (1) 106 mg/M^2 weekly", "result": "SD (less than 20% of an increase and less than 30% of a decrease in the sum of the longest diameters as compared to baseline); also recorded: PD (at least a 20% increase in the sum of the longest diameters as compared to baseline)"}, {"measurement": "Best Response cycle 2 week 4", "setting": "[1]; Paclitaxel 80 + Cmpnd (1) 213 mg/M^2 weekly", "result": "SD (less than 20% of an increase and less than 30% of a decrease in the sum of the longest diameters as compared to baseline); also recorded: PD (at least a 20% increase in the sum of the longest diameters as compared to baseline)"}, {"measurement": "patients stable at 3 months", "setting": "[1]; of 20 evaluable patients, Stage 1", "result": 11, "unit": "patients"}, {"measurement": "patients with at least a 20% increase in sum of longest diameters (PD)", "setting": "[1]; patients completing the study (#12-#20, #22)", "result": "seven patients"}, {"measurement": "% tumor cell lysis post-dose", "setting": "[2]; Paclitaxel 80 + Cmpnd (1) 106 mg/M^2 weekly, 7 days after second dose, Effector/Target 80:1, one value per subject", "result": "7.74% and 2.43%"}, {"measurement": "NK activity (change before and after dosing)", "setting": "[2]; [5]", "result": "increase; also recorded: decrease"}, {"measurement": "% tumor cell lysis post-dose", "setting": "[2]; Paclitaxel 80 + Cmpnd (1) 213 mg/M^2 weekly, 7 days after second dose, Effector/Target 80:1, one value per subject", "result": "10.77% and 19.78% and 26.52% and 8.64% and 18.77% and 5.2% and 26.31% and 7.2%"}, {"measurement": "NK activity (change before and after dosing)", "setting": "[2]; [6]", "result": "increase; also recorded: no change; also recorded: decrease"}, {"measurement": "% tumor cell lysis post-dose", "setting": "[2]; [7]", "result": 10.01, "unit": "%"}, {"measurement": "NK activity (change before and after dosing)", "setting": "[2]; [7]", "result": "(increase)"}, {"measurement": "% tumor cell lysis pre-dose", "setting": "[2]; [5]", "result": "2.32% and 6.13%"}, {"measurement": "% tumor cell lysis pre-dose", "setting": "[2]; [6]", "result": "3.83% and 19.71% and 41.61% and 8.6% and 24.76% and 16.49% and 15.4% and 10.81%"}, {"measurement": "% tumor cell lysis pre-dose", "setting": "[2]; [7]", "result": 3.5, "unit": "%"}, {"measurement": "patients with statistically significant increase in NK cell activity pre- to post-dose", "setting": "[2]; original patients of Table 3", "result": "four of the original patients"}, {"measurement": "% tumor cell lysis post-dose", "setting": "[3]; [8]", "result": "30.8% and 7.75% and 14.61% and 16.14% and 8.76% and 10.05%"}, {"measurement": "NK activity (change before and after dosing)", "setting": "[3]; [8]", "result": "increase; also recorded: no change"}, {"measurement": "% tumor cell lysis post-dose", "setting": "[3]; [9]", "result": "5.5% and 7.81%"}, {"measurement": "NK activity (change before and after dosing)", "setting": "[3]; [9]", "result": "decrease; also recorded: increase"}, {"measurement": "% tumor cell lysis pre-dose", "setting": "[3]; [8]", "result": "7.79% and 0.92% and 10.7% and 9.55% and 3.12% and 7.84%"}, {"measurement": "% tumor cell lysis pre-dose", "setting": "[3]; [9]", "result": "8.4% and 3.59%"}, {"measurement": "NK activity (change before and after dosing)", "setting": "[3]; dose not printed (subjects 9-11), listed as Cmpnd (1)", "result": "increase; also recorded: decrease"}, {"measurement": "patients with increased NK cell activity", "setting": "[3]; evaluable samples, assayed 7 days after the second dose", "result": "Seven of the 8"}, {"measurement": "patients with increase in NK cell activity between pre- and post-dose", "setting": "[3]; of the 11 original patients, paired t-test p=0.06, not significant", "result": 8, "unit": "patients"}, {"measurement": "percent increase in Hsp70 plasma levels", "setting": "[4]; Compound (1) 88 mg/m2 with paclitaxel, at least one patient", "result": "about 90%"}, {"measurement": "increase in Hsp70 plasma concentrations", "setting": "[4]; Compound (1) 175 mg/m2 with paclitaxel, two patients", "result": "more than doubled"}, {"measurement": "increase in Hsp70 plasma concentrations", "setting": "[4]; Compound (1) 263 mg/m2 with paclitaxel, individual patients", "result": "roughly doubled; also recorded: more than 250%"}, {"measurement": "increase in Hsp70 plasma concentrations", "setting": "[4]; Compound (1) 438 mg/m2 with paclitaxel, individual patients", "result": "roughly doubled and ≤ 500%"}, {"measurement": "Induction of Hsp70 protein in plasma", "setting": "[4]; Compound (1) with paclitaxel, human plasma", "result": "dose dependent"}, {"measurement": "plasma Hsp70 levels in patients", "setting": "[4]; paclitaxel 175 mg/m2 and Compound (1) 88 through 438 mg/m2", "result": "dramatically increased"}]}
